Reference: patent US7592351B2, “Substituted imidazo[1,2-a]pyridine compounds and pharmaceutical preparations containing substituted imidazo[1,2-a]pyridine compounds” (Gruenenthal GmbH, priority 2004, dated 2009)
Structures can show the parent of a compound that is named as a salt. Where two headings read alike, the source gives them in different places.

Tests used:
vanilloid receptor (VR1) = target: T1, vanilloid receptor (VR1) (Rattus norvegicus, UniProt O35433); test: Functional investigations on vanilloid receptor (VR1): Ca2+ influx FLIPR assay in CHO K1 cells stably transfected with the VR1 gene; type: cell-based, rats; settings: method (b), 10 μM, 1–3 measurements; for inhibition at 10 µM: CHO-K1, read-out: VR1 inhibition in rats (10 μM) [%]
T1 construct: expressed in transfected cells; host or cells: CHO K1 cells (ECACC)
T1 sequence (O35433 whole entry): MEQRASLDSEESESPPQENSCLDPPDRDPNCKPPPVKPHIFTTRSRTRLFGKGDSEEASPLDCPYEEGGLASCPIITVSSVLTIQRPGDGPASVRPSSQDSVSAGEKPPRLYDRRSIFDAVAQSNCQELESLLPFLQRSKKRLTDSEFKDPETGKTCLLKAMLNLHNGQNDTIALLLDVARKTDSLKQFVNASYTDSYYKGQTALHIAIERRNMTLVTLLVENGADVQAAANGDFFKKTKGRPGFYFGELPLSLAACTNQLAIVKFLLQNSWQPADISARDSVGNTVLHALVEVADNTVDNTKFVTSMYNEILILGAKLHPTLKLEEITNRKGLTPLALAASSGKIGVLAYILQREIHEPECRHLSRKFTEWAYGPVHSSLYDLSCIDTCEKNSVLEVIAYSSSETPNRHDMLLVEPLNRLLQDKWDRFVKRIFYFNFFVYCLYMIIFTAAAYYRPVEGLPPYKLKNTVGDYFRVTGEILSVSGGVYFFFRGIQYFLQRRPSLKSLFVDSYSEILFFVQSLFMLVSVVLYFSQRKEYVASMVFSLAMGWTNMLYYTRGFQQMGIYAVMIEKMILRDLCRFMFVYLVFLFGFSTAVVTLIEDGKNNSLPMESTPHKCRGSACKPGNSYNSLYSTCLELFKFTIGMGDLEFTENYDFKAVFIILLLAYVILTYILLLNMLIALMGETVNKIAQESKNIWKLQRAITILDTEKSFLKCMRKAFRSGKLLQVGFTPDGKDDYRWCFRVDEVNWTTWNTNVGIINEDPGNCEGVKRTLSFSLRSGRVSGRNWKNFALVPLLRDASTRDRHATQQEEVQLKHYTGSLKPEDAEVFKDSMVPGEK
Source text: (b) Functional Investigations on Vanilloid Receptor (VR1)
The agonistic or antagonistic action of the substances to be investigated on the vanilloid receptor (VR1) may be determined with the following assay. According to this assay, the influx of Ca^2+ through the channel is quantified with the assistance of a Ca^2+-sensitive dye (type Fluo4, Molecular Probes Europe BV, Leiden, Netherlands) in a Fluorescent Imaging Plate Reader (FLIPR, Molecular Devices, Sunnyvale, USA).
Chinese hamster ovary cells (CHO K1 cells, European Collection of Cell Cultures (ECACC), Great Britain) are stably transfected with the VR1 gene. For functional investigations, these cells are plated out onto poly-D-lysine-coated, black 96 well plates with a clear bottom (BD Biosciences, Heidelberg, Germany) at a density of 25,000 cells/well. The cells are incubated overnight at 37° C. and 5% CO2 in a culture medium (Ham's Nutrient Mixture F12, 10 vol. % FCS (foetal calf serum), 18 μg/mL L-proline). On the following day, the cells are incubated with Fluo4 (Fluo4 2 μM, Pluronic F127 0.01 vol. %, Molecular Probes in HBSS (Hank's buffered saline solution), Gibco Invitrogen GmbH, Karlsruhe, Germany) for 30 minutes at 37° C. The plates are then washed 3 times with HBSS buffer and, after a further 15 minutes' incubation at room temperature, used for Ca^2+ measurement in the FLIPR. Ca^2+-dependent fluorescence is here measured before and after addition of the substances to be investigated (wavelength λex=488 nm, λem=540 nm). Quantification proceeds by measuring the highest fluorescence intensity (FC, fluorescence counts) over time.
The FLIPR protocol comprises 2 additions of substance. […] The percentage inhibition in comparison with the maximum achievable inhibition with 10 μM capsazepine is calculated.

[1] = target: T2, vanilloid receptor VR1 (capsaicin receptor) (Rattus norvegicus, UniProt O35433); test: Determination of affinity for vanilloid receptor VR1 ([3H] resiniferatoxin binding, rat spinal cord membranes); set-up: species or system Sprague Dawley rats
T2 construct: isolated from the spinal cord of male Sprague Dawley rats (breeder: Charles River Deutschland, 32699 Extertal) and used for preparation of the membrane; from tissue; host or cells: rat spinal cord (cervical region and one third of the thoracic region) membranes
T2 sequence (O35433 whole entry): as above
Source text: This method was developed on the basis of the publication by Acs et al., J. Neurochem. 65, 301-308 (1995). The corresponding description is hereby introduced as a reference and is deemed to be part of the disclosure.
• Sprague Dawley rats weighing between 150-300 g • (breeder: Charles River Deutschland, 32699 Extertal, Germany) • HEPES (item no. H-3375, SIGMA) • NaCl (item no. 6400.1000; Merck) • KCl (item no.: 4936.1000; Merck) • HCl (item no.: 1.00317; Merck) • [^3H] resiniferatoxin ([^3H] RTX) (item no.: NET-1132, Perkin-Elmer) • Resiniferatoxin (RTX, cold) (item no.: 550-179-M001, Alexis) • D-Glucose (item no.: 1.08337.1000, Merck) • Sucrose (item no.: S-9378, Sigma) • α1-acid glycoprotein (item no.: G-3643, Sigma) • BSA (bovine serum albumin, item no.: A-2153, Sigma) • GF/B filter mats (Brandel Inc., cat. no. FP 100, size: 2¼″×12¼″)
Buffer: (Concentration values in brackets in each case in mM)
• HEPES (10); KCl (5); NaCl (5.8); CaCl (0.75); MgCl (2.0); D-glucose (12); • sucrose (137). The pH value is adjusted at room temperature using 20% strength HCl. B. Preparation of Membranes
The cervical region and one third of the following thoracic region is isolated from the spinal cord of male Sprague Dawley rats (breeder: Charles River Deutschland, 32699 Extertal) and used for preparation of the membrane. After the combined tissue is weighed, it is homogenized in ice-cooled buffer of the above-stated composition. 20 ml of buffer were used per 1 g of tissue (1:20 weight/volume). Homogenisation performed with a homogeniser from Kinematica, model Polytron PT-3000 with PT-DA-3012/2 drive unit. The spinal cord tissue is disrupted within 60 seconds in the cold buffer with ice cooling at a rotational speed of 6000 rpm. The material is then centrifuged for 10 minutes at 1000 g and +4° C. and the resultant precipitate discarded. The […] in the same volume of buffer of the above-stated composition. The material is then centrifuged for 40 minutes at 48,000 g and +4° C. and the supernatant discarded. The resultant precipitate is resuspended in 30 ml of buffer of the above-stated composition and used in this form in the vanilloid receptor (VR1) assay.
Incubation is performed in the water bath for one hour at 37° C. The samples are then placed in an ice bath for 15 minutes. In order to minimise nonspecific adsorption of the RTX, 100 μg of α1-acid glycoprotein (in 50 μl of buffer) are added to each incubation tube. The samples are then thoroughly mixed on a vortex shaker and left to stand for 10 minutes. The batches are then filtered with the assistance of the model M-24R “Brandel Cell Harvester” through a GF/B glass fiber filter mat which has been presoftened in tris buffer. The filter is then rinsed through 3 times with 4 ml portions of ice-cold HEPES buffer of the above-stated composition for each sample. The filters are transferred into scintillation counter vessels, each is combined with a 10 ml portion of “Ready Protein” scintillating material, and the vessels are closed with screw caps. The vessels are shaken on the vortex shaker and left to stand for at least 15 hours in the fume cupboard. The samples are then measured on the β-counter (model 1409 Wallac, Perkin Elmer, 63110 Rogau-Jügesheim, Germany).

Row | Compound | inhibition at 10 µM (vanilloid receptor (VR1)) [%] | VR1 activation in rats (10 μM) [%] (vanilloid receptor (VR1)) | further results
1 | CCCCCC(C)(C)Nc1c(-c2ccsc2)nc2cc(C)ccn12.Cl [Example 17, (1,1-Dimethyl-hexyl)-(7-methyl-2-thiophen-3-yl-imidazo[1,2-a]pyridin-3-yl)-amine hydrochloride] | 97.5 | 68.9 | –
2 | CCCCCCCCNc1c(-c2ccncc2)nc2cc(C)ccn12 [Example 25, (7-Methyl-2-pyridin-4-yl-imidazo[1,2-a]pyridin-3-yl)-octyl-amine hydrochloride] | 33.2 | – | –
3 | CCCCCCC(C)(C)Nc1c(-c2ccoc2)nc2cc(C)ccn12.Cl [Example 15, (1,1-Dimethyl-heptyl)-(2-furan-3-yl-7-methyl-imidazo[1,2-a]pyridin-3-yl)-amine hydrochloride] | 92.5 | 49 | –
4 | C=C(C)[C@]12C[C@@H](C)[C@@]34O[C@](Cc5ccccc5)(O[C@@H]1[C@@H]3C=C(COC(=O)Cc1ccc(O)c(OC)c1)C[C@]1(O)C(=O)C(C)=C[C@@H]41)O2 [Resiniferatoxin] | – | – | IC50 [1]: 0.00021 µM
5 | CCCCCCCNc1c(-c2ccoc2)nc2cc(C)ccn12.Cl [Example 11, (2-Furan-3-yl-7-methyl-imidazo[1,2-a]pyridin-3-yl)-heptyl-amine hydrochloride] | 81.7 | 50.3 | –
6 | CC1(C)C[C@H]2C=C(C=O)[C@]3(C=O)C[C@]3(C)[C@H]2C1 [Isovelleral] | – | – | IC50 [1]: 7.22 µM
7 | CCCCCC(C)(C)Nc1c(-c2ccoc2)nc2ccc(C)cn12 [Example 28, (1,1-Dimethyl-hexyl)-(2-furan-3-yl-6-methyl-imidazo[1,2-a]pyridin-3-yl)-amine hydrochloride] | 36.6 | – | –
8 | CCCCCCC(C)(C)Nc1c(-c2ccsc2)nc2cc(C)ccn12.Cl [Example 18, (1,1-Dimethyl-heptyl)-(7-methyl-2-thiophen-3-yl-imidazo[1,2-a]pyridin-3-yl)-amine hydrochloride] | 62.8 | 45.3 | –
9 | CCCCCCCCNc1c(-c2ccoc2)nc2ccc(C)cn12 [Example 27, (2-Furan-3-yl-6-methyl-imidazo[1,2-a]pyridin-3-yl)-octyl-amine hydrochloride] | 61.1 | – | –
10 | CCCCCC(C)(C)Nc1c(-c2ccoc2)nc2ccccn12 [Example 7, (1,1-Dimethyl-hexyl)-(2-furan-3-yl-imidazo[1,2-a]pyridin-3-yl)-amine hydrochloride] | 46 | – | –
11 | CCCCCCCCNc1c(-c2ccoc2)nc2cc(C)ccn12.Cl [Example 12, (2-Furan-3-yl-7-methyl-imidazo[1,2-a]pyridin-3-yl)-octyl-amine hydrochloride] | 84.6 | 36.9 | –
12 | CCCCCCCCCNc1c(-c2cccnc2)nc2cc(C)ccn12 [Example 23, (7-Methyl-2-pyridin-3-yl-imidazo[1,2-a]pyridin-3-yl)-nonyl-amine hydrochloride] | 34.4 | – | –
13 | CCCCCC(C)(C)Nc1c(-c2ccoc2)nc2cc(C)ccn12.Cl [Example 14, (1,1-Dimethyl-hexyl)-(2-furan-3-yl-7-methyl-imidazo[1,2-a]pyridin-3-yl)-amine hydrochloride] | 97.9 | 52.1 | –
14 | CCCCCC(C)(C)Nc1c(-c2ccncc2)nc2cc(C)ccn12 [Example 26, (1,1-Dimethyl-hexyl)-(7-methyl-2-pyridin-4-yl-imidazo[1,2-a]pyridin-3-yl)-amine hydrochloride] | 32.1 | – | –
15 | CCCCCCCC(C)(C)Nc1c(-c2ccoc2)nc2cc(C)ccn12 [Example 16, (1,1-Dimethyl-octyl)-(2-furan-3-yl-7-methyl-imidazo[1,2-a]pyridin-3-yl)-amine hydrochloride] | 31.8 | – | –
16 | CCCCCCCNc1c(-c2ccoc2)nc2ccccn12 [Example 6, (2-Furan-3-yl-imidazo[1,2-a]pyridin-3-yl)-heptyl-amine hydrochloride] | 66.4 | – | –
17 | COc1cc(CNC(=O)CCCCCCC(C)C)ccc1O [Dihydrocapsaicin] | – | – | IC50 [1]: 2.72 µM
18 | CCCCC/C=C\C/C=C\C/C=C\C/C=C\CCCC(=O)NCc1ccc(O)c(OC)c1 [Arvanil] | – | – | IC50 ([1]; [3H] RTX 100 pM, rat spinal cord membranes, comparison substances, read-out: IC50 (VR-1 receptor affinity, reference data)): 8.9 µM
